# Assay results from patent publication US10952992B2, “Methods of treating intraocular pressure with activators of Tie-2” (Aerpio Pharmaceuticals, Inc., priority 2015, dated 2021).
# Values joined by “and” are separate entries in the source; they are usually repeats but may differ in a detail not shown here. Equal values may be shown once. Where a name gives a salt, the structure may show the parent alone.
# What was measured:
# [1] = Example 2 vitreous humor concentrations; assay type: in vivo, male New Zealand White rabbits
# Method: To measure the concentration of Compound 1 in plasma and ocular tissues following topical ocular, subcutaneous, and intravitreal administration, New Zealand White rabbits were administered Compound 1, and plasma and ocular samples were collected at pre-determined time points. Compound 1 formulations were prepared fresh on each day of dosing.
# Ocular tissue samples from both eyes of each animal were collected and weights were recorded. Plasma and ocular tissue sample concentrations of Compound 1 were determined by LC-MS/MS.
# Animals were anesthetized for ocular (topical) and intravitreal dosing following the 12IA7 IACUC protocol. Each rabbit received a bolus dose of test formulation either via topical ocular administration 3 times daily on Days 1 and 2 (at 0, 6, and 12 hours), and once on Day 3 (at 0 hours) into both eyes; via intravitreal administration into both eyes once on Day 1 (at 0 hours); or via subcutaneous administration 2 times daily on Days 1 and 2 (at 0 and 8 hours) and once daily on Day 3 (at 0 hours). Doses were given within an approximately 1 hour window each day where applicable.
# On Day 1, for intravitreal administration, or on Day 3, for topical ocular and subcutaneous administration, at the appropriate ocular tissue collection time points, animals were euthanized and both eyes were enucleated immediately. Following enucleation, each eye was rinsed with phosphate-buffered saline. Ocular tissue samples from both eyes of each animal were collected at predetermined time points and weights were recorded. All the samples were frozen immediately on dry ice, and stored at −60° C. to −80° C. pending bioanalysis.
# An LC-MS/MS method was developed for the determination of Compound 1 in rabbit aqueous tissues (plasma, aqueous and vitreous humor) and solid ocular tissue samples. A pre-study standard curve was analyzed to determine the specificity, range, and lower limit of quantitation of the method. Plasma and tissue homogenate study samples were extracted and analyzed. All the samples were treated identically to the standards.
# One eight-point standard curve was used in each analytical batch. To be accepted, each batch must have had at least five of eight standards with accuracy within ±20% of nominal, except at the lower limit of quantification (LLOQ), where ±25% was acceptable.
# [2] = tested on: intraocular pressure in normotensive New Zealand White rabbits; test: Example 3 intraocular pressure after repeated topical and subcutaneous administration (pneumotonometer); assay type: in vivo
# Method: To measure the tolerability and effect of Compound 1 (sodium salt) on intraocular pressure following repeated topical and subcutaneous administration, normotensive New Zealand White rabbits were treated with Compound 1 (sodium salt). Animals were acclimated 1 to 2 times per day to the intraocular pressure (IOP) measurement procedures prior to initiation of the study to determine baseline IOP levels. IOP acclimation was performed in the two weeks prior to study start for a total of 5 days. Animals with unacceptable IOP values were excluded from the study. Prior to taking all IOP measurements, 1 to 2 drops of a 0.5% proparacaine solution were applied to the eye as a topical anesthetic. OP measurements were performed with a pneumotonometer. Test and control formulations were administered to the animals once or twice daily topically into both eyes or subcutaneously starting on Day 1 according to TABLE 20 and TABLE 21 below. PM dosing, where applicable, was performed ˜8 hours after AM dosing. IOP measurements were performed twice (AM and PM) at baseline (prior to the start of dosing), twice (AM and PM) on Days 1 and 7, and once daily (AM) on Days 2-6 and Day 8. Prior to taking all IOP measurements, 1 to 2 drops of a 0.5% proparacaine solution were applied to the eye as a topical anesthetic. IOP measurements were performed with a pneumotonometer. AM IOP measurements were performed 2 hours after AM dosing; the only exceptions were Day 8 AM measurements, which were performed 24 hours after the final dose. PM IOP measurements were performed ˜5 hours (baseline and Day 1) or ˜4 hours (Day 7) after AM IOP measurements, prior to PM dosing, with at least 15 minutes elapsing between anesthetic application for PM IOP measurements and PM dosing. The final round of slit-lamp examinations was performed on Day 8.
# [3] = Group 3 (subcutaneous 5 mg/kg/dose, suspension), 0.5 hr
# [4] = Group 3 (subcutaneous 5 mg/kg/dose, suspension), 2.0 hr, BLOQ = below 0.2 ng/mL
# [5] = Group 5 (intravitreal 2.5 mg/eye, suspension), 6.0 hr
# [6] = Group 5 (intravitreal 2.5 mg/eye, suspension), 24 hr
# [7] = Group 5 (intravitreal 2.5 mg/eye, suspension), 48 hr
# [8] = Group 1 (topical ocular 1.2 mg/eye), 0.5 hr
# [9] = Group 1 (topical ocular 1.2 mg/eye), 1.0 hr
# [10] = Group 1 (topical ocular 1.2 mg/eye), 2.0 hr
# [11] = Group 1 (topical ocular 1.2 mg/eye), 4.0 hr
# [12] = Group 2 (subcutaneous 5 mg/kg/dose, solution), 0.5 hr
# [13] = Group 2 (subcutaneous 5 mg/kg/dose, solution), 1.0 hr
# [14] = Group 2 (subcutaneous 5 mg/kg/dose, solution), 2.0 hr, BLOQ = below 0.2 ng/mL
# [15] = Group 2 (subcutaneous 5 mg/kg/dose, solution), 4.0 hr, BLOQ = below 0.2 ng/mL
# [16] = Group 4 (intravitreal 2.5 mg/eye, solution), 6.0 hr
# [17] = Group 4 (intravitreal 2.5 mg/eye, solution), 24 hr
# [18] = Group 4 (intravitreal 2.5 mg/eye, solution), 48 hr
# [19] = Group 4 (intravitreal 2.5 mg/eye, solution), 72 hr
smiles,measurement,setting,value
COC(=O)N[C@@H](Cc1ccccc1)C(=O)N[C@@H](Cc1ccc(NS(=O)(=O)O)cc1)c1csc(-c2cccs2)n1 [Compound 1 free acid],vitreous humor Average Conc.,[1]; [3],0.40 ng/g
same,vitreous humor Conc. OS,[1]; [3],0.227 ng/mL
same,vitreous humor Average Conc.,"[1]; Group 3 (subcutaneous 5 mg/kg/dose, suspension), 1.0 hr",0.41 ng/g
same,vitreous humor Conc. OS,"[1]; Group 3 (subcutaneous 5 mg/kg/dose, suspension), 1.0 hr, BLOQ = below 0.2 ng/mL",BLOQ
same,vitreous humor Conc. OD,[1]; [4],BLOQ
same,vitreous humor Conc. OS,[1]; [4],BLOQ
same,vitreous humor Average Conc.,"[1]; Group 3 (subcutaneous 5 mg/kg/dose, suspension), 4.0 hr",0.41 ng/g
same,vitreous humor Conc. OD,"[1]; Group 3 (subcutaneous 5 mg/kg/dose, suspension), 4.0 hr, BLOQ = below 0.2 ng/mL",BLOQ
same,"Average Peak Concentration, Vitreous Humor","[1]; Group 3: subcutaneous 5 mg/kg/dose, suspension",0.40 ng/g
same,vitreous humor Average Conc.,[1]; [5],479750 ng/g
same,vitreous humor Conc. OD,[1]; [5],592000 ng/mL and 432000 ng/mL
same,vitreous humor Average Conc.,[1]; [6],408750 ng/g
same,vitreous humor Conc. OD,[1]; [6],296000 ng/mL and 491000 ng/mL
same,vitreous humor Conc. OS,[1]; [6],528000 ng/mL and 320000 ng/mL
same,vitreous humor Average Conc.,[1]; [7],97800 ng/g
same,vitreous humor Conc. OD,[1]; [7],75900 ng/mL and 68300 ng/mL
same,vitreous humor Conc. OS,[1]; [7],148000 ng/mL and 99000 ng/mL
same,vitreous humor Average Conc.,"[1]; Group 5 (intravitreal 2.5 mg/eye, suspension), 72 hr",65350 ng/g
same,"Average Peak Concentration, Vitreous Humor","[1]; Group 5: intravitreal 1.54 mg/kg/dose, suspension",479750 ng/g
COC(=O)N[C@@H](Cc1ccccc1)C(=O)N[C@@H](Cc1ccc(NS(=O)(=O)O)cc1)c1csc(-c2cccs2)n1 [Compound 1 sodium salt],vitreous humor Average Conc.,[1]; [8],0.61 ng/g
same,vitreous humor Conc. OD,[1]; [8],0.549 ng/mL
same,vitreous humor Conc. OS,[1]; [8],0.528 ng/mL and 0.507 ng/mL
same,vitreous humor Average Conc.,[1]; [9],2.09 ng/g
same,vitreous humor Conc. OD,[1]; [9],1.97 ng/mL and 3.28 ng/mL
same,vitreous humor Average Conc.,[1]; [10],3.33 ng/g
same,vitreous humor Conc. OD,[1]; [10],1.14 ng/mL
same,vitreous humor Conc. OS,[1]; [10],0.950 ng/mL
same,vitreous humor Average Conc.,[1]; [11],4.01 ng/g
same,vitreous humor Conc. OD,[1]; [11],1.09 ng/mL and 0.551 ng/mL
same,vitreous humor Conc. OS,[1]; [11],2.20 ng/mL
same,"Average Peak Concentration, Vitreous Humor","[1]; Group 1: topical ocular 0.70 mg/kg/dose, solution",0.61 ng/g
same,vitreous humor Average Conc.,[1]; [12],0.83 ng/g
same,vitreous humor Conc. OD,[1]; [12],0.77 ng/mL and 0.537 ng/mL
same,vitreous humor Conc. OS,[1]; [12],1.03 ng/mL and 0.981 ng/mL
same,vitreous humor Average Conc.,[1]; [13],0.45 ng/g
same,vitreous humor Conc. OD,[1]; [13],0.252 ng/mL and 0.442 ng/mL
same,vitreous humor Conc. OD,[1]; [14],BLOQ
same,vitreous humor Conc. OS,[1]; [14],BLOQ
same,vitreous humor Conc. OD,[1]; [15],BLOQ
same,vitreous humor Conc. OS,[1]; [15],BLOQ
same,"Average Peak Concentration, Vitreous Humor","[1]; Group 2: subcutaneous 5 mg/kg/dose, solution",0.83 ng/g
same,vitreous humor Average Conc.,[1]; [16],988500 ng/g
same,vitreous humor Conc. OD,[1]; [16],1450000 ng/mL and 1480000 ng/mL
same,vitreous humor Conc. OS,[1]; [16],592000 ng/mL and 432000 ng/mL
same,vitreous humor Average Conc.,[1]; [17],349500 ng/g
same,vitreous humor Conc. OD,[1]; [17],438000 ng/mL and 406000 ng/mL
same,vitreous humor Conc. OS,[1]; [17],295000 ng/mL and 259000 ng/mL
same,vitreous humor Average Conc.,[1]; [18],82000 ng/g
same,vitreous humor Conc. OD,[1]; [18],85200 ng/mL and 68600 ng/mL
same,vitreous humor Conc. OS,[1]; [18],82300 ng/mL and 91900 ng/mL
same,vitreous humor Average Conc.,[1]; [19],13450 ng/g
same,vitreous humor Conc. OD,[1]; [19],14500 ng/mL and 11700 ng/mL
same,vitreous humor Conc. OS,[1]; [19],13500 ng/mL and 14100 ng/mL
same,"Average Peak Concentration, Vitreous Humor","[1]; Group 4: intravitreal 1.55 mg/kg/dose, solution",988500 ng/g
same,vitreous humor concentrations vs free acid (FIG. 11),"[1]; intravitreal administration, 6 hr post-dosing",higher vitreous humor concentrations
same,vitreous humor concentrations vs free acid (FIG. 10),"[1]; subcutaneous administration, 0.5 hr and 1 hr post-dosing",increased vitreous humor concentrations
same,vitreous humor concentrations over time (FIG. 9),[1]; topical ocular administration,increased vitreous humor concentrations
same,reduction in IOP values compared to vehicle control,[2]; 10 mg/kg subcutaneous,slightly more consistent
same,lower IOP values compared to Group 1 (Vehicle),"[2]; Group 2: 0.45 mg/eye topical BID, over the course of dosing",not
same,IOP values compared to Group 1 (Vehicle),"[2]; Group 3: 1.2 mg/eye topical BID, over the course of dosing",lower IOP values
same,IOP values compared to Group 1 (Vehicle),"[2]; Group 4: 1.2 mg/eye topical QD, over the course of dosing",lower IOP values
same,IOP values compared to Group 1 (Vehicle),"[2]; Group 5: 10 mg/kg subcutaneous BID, early part of the study, difference decreased towards the end",Lower IOP values
same,apparent reduction in intraocular pressure values,"[2]; Groups 3 and 4 (1.2 mg/eye topical BID, QD), Day 7 and Day 8 (24 hours after the end of dosing)",persisted
same,effect on intraocular pressure,"[2]; topical 1.2 mg/eye, QD or BID",reduce intraocular pressure
